# Conditions: buffer; pH 7.4; 200.0 µM
row,Structure (SMILES),solubility kinetic
1,Cc1nnc(-c2cnn(C)c2N)n1CCCN1CCOCC1,> 45.8 µg/mL
2,Cc1cccc(Cn2cc(C=O)c3ccccc32)c1,14.5 µg/mL
3,CCCC(C)NC(=O)CSc1nnc2ccccn12 (stereo not drawn),> 41.8 µg/mL
4,CC(C)(C)c1ccc(-c2ncccc2O)cc1.Cl,10.6 µg/mL
5,CCC(C)c1ccc(NC(=O)COC(=O)C2CCCC2)cc1 (stereo not drawn),8.8 µg/mL
6,CCCCCCC(=O)OCC(=O)c1ccc2c(c1)NC(=O)CO2,10.8 µg/mL
7,O=C(COc1ccc(F)cc1F)N1CCCCCCC1,> 42.5 µg/mL
8,O=C1CSC(=Nc2cccc([N+](=O)[O-])c2)N1,> 35.6 µg/mL
9,CC(C)(C)NC(=O)c1ccc2c(c1)C(=O)N(Cc1ccco1)C2=O,46 µg/mL
10,CCC(=O)Nc1ccc2c(c1)nc1n2CCN(CCOC)C1,> 45.4 µg/mL
11,COc1ccc(OCC(O)CN2CCNCC2)cc1.Cl (stereo not drawn),49.5 µg/mL
12,Cc1ccc(Sc2nc(C)c([N+](=O)[O-])c(C)c2C#N)cc1,0.7 µg/mL
13,O=C(c1ccc(-c2ccc([N+](=O)[O-])cc2)o1)N1CCCCCCC1,9.1 µg/mL
14,CC1CC(C)(C)Nc2ccc(N=O)cc21 (stereo not drawn),> 30.6 µg/mL
15,COc1ccc(NS(=O)(=O)c2ccc3c(c2)OCCO3)cc1OC,> 52.7 µg/mL
16,FC(F)(F)C1=Nc2cccc3cccc(c23)N1,13.5 µg/mL
17,CC1CCN(Cc2cc(=O)oc3cc(O)c(Cl)cc23)CC1,> 46.2 µg/mL
18,C/C(=N\NC(=O)c1cccc([N+](=O)[O-])c1)c1ccncc1,> 42.6 µg/mL
19,O=[N+]([O-])C1=CC=C2C(=NC3(CCCCC3)N2O)C1=NCCO,> 45.9 µg/mL
20,S=C(Nc1ccc(Cl)cc1Cl)N1CCN(c2ccccn2)CC1,1 µg/mL
21,COc1cccc(N2CN(C3CCCCC3)CNC2=S)c1,> 45.8 µg/mL
22,O=S(=O)(NC1CN2CCC1CC2)c1ccc(Cl)cc1 (stereo not drawn),42.6 µg/mL
23,COc1cc2c(cc1OC)CN(C(=O)Cn1ccccc1=O)CC2,> 49.3 µg/mL

row,Structure (SMILES),solubility kinetic
1,Cc1ccccc1-n1ccnc1SCC(=O)NC1CCCC1,> 47.3 µg/mL
2,Cc1ccc(NC(=O)CCc2ccc(S(=O)(=O)N3CCOCC3)cc2)c(Cl)c1,6.1 µg/mL
3,Cc1ccc(NS(=O)(=O)c2ccc3c(c2)n(C)c(=O)n3C)c(C)c1,17.9 µg/mL
4,CC(=O)N1CCN(c2ccc(S(=O)(=O)N3CCCCC3)cc2[N+](=O)[O-])CC1,> 59.5 µg/mL
5,Cc1[nH]c(=O)nc(SCc2ccc(Cl)c(Cl)c2)c1C#N,3.4 µg/mL
6,N#Cc1ccc(OCC(=O)OCC(=O)NC2CC2)cc1,> 41.1 µg/mL
7,CC1(c2cccc(Br)c2)NC(=O)N(CC(=O)c2ccc3c(c2)OCCO3)C1=O (stereo not drawn),12.5 µg/mL
8,Cc1ccc(C(=O)N2CCOCC2)c(F)c1F,33.9 µg/mL
9,O=C(COC(=O)/C=C/c1ccc(C(F)(F)F)cc1)NCCC1=CCCCC1,4.3 µg/mL
10,CNC(=O)CNC(=O)Nc1ccc(C)cc1,> 33.2 µg/mL
11,CC(=O)NC1C(Oc2ccccc2C)OC(CO)C(O)C1O (stereo not drawn),> 46.7 µg/mL
12,COc1cc2c(cc1OC)CN(C(=O)CCNC(=O)c1ccccc1Cl)CC2,> 60.4 µg/mL
13,CCOCCCNC(=O)/C(C#N)=C/c1cc(C)c(O)c(C)c1,7 µg/mL
14,O=[N+]([O-])c1ccc(NCc2ccc3c(c2)OCO3)cc1,< 0.3 µg/mL
15,CN(C)CCNC(=O)C(=O)Nc1cc2c3c(c1)CCN3C(=O)CC2,> 49.6 µg/mL
16,C[C@@H]1NC(=O)N[C@@H]1CCCCCC(=O)O,> 32.1 µg/mL
17,Cc1csc(NC(=O)c2ccc(C)s2)n1,25.9 µg/mL
18,Cc1cc(C(=O)OCC(=O)Nc2ccccc2C#N)c(C)o1,8.9 µg/mL
19,CCOC(=O)c1oc2ccc(Cl)cc2c1NC(C)=O,4.8 µg/mL
20,O=C(NC1CC1)C(Cl)c1ccccc1 (stereo not drawn),> 31.5 µg/mL
21,Cc1nnc(SCC(=O)Nc2ccc(F)cc2)n(N)c1=O,> 46.4 µg/mL
22,O=C(CSc1cccc[n+]1[O-])NC1CCCCCCC1,39.3 µg/mL
23,C/C(Cl)=C\Cn1c(N2CCCC2)nc2c1c(=O)n(C)c(=O)n2C,40.9 µg/mL

row,Structure (SMILES),solubility kinetic
1,COc1ccc(C2(C)NC(=O)N(CC3CCCCC3)C2=O)cc1 (stereo not drawn),> 47.5 µg/mL
2,CC1CCN(CC(C)OC(=O)c2ccco2)CC1.Cl (stereo not drawn),> 43.2 µg/mL
3,Cc1cc(/C=C(\C#N)C(=O)OCC#N)c(C)n1CC(C)C,13.6 µg/mL
4,COc1cc(OC)c(CNC2CCCCCC2)cc1Br,> 51.3 µg/mL
5,Clc1ccc(Cl)c(-c2nc(-c3ccncc3)no2)c1,< 0.2 µg/mL
6,CC1CCC(NC(=O)COC(=O)c2cccnc2Cl)CC1 (stereo not drawn),> 46.6 µg/mL
7,COc1ccc(/C=C/C(=O)O)cc1S(=O)(=O)N1CCCC1,> 46.7 µg/mL
8,c1ccc(-c2noc(C3CCC3)n2)nc1,20.6 µg/mL
9,OCCCNC(=S)Nc1ccc2nccnc2c1,> 39.3 µg/mL
10,N#CCC(=O)N1CCN(Cc2ccc3c(c2)OCO3)CC1,1.6 µg/mL
11,CC(=O)Nc1ccc(S(=O)(=O)N2CC(=O)NC(=O)C2)cc1,> 46.7 µg/mL
12,Cn1c(=O)n(C)c2cc(S(=O)(=O)NCC(=O)O)ccc21,> 44.9 µg/mL
13,Cc1ccc(C)c(NC(=O)C2CCCN2C(=O)NC2CCCCC2)c1 (stereo not drawn),29 µg/mL
14,COc1ccc2oc(=N)c(C(=O)Nc3ccc(C)cc3)cc2c1,0.6 µg/mL
15,CCC(=O)c1ccc(OCC(=O)OCC(=O)NC2CCCCCCC2)cc1,48 µg/mL
16,COCc1cc(=O)[nH]c(/N=C(\N)Nc2cccc(Cl)c2)n1,2.7 µg/mL
17,Cc1ccnc(NC(=O)COC(=O)c2ccc(F)cc2F)n1,> 46.1 µg/mL
18,COc1ccc(C(=O)COC(=O)C2CCC(=O)N2)cc1 (stereo not drawn),> 41.6 µg/mL
19,CC(C(=O)N1CCCC1)N1CCN(S(=O)(=O)c2ccccc2)CC1 (stereo not drawn),47.1 µg/mL
20,CCOC(=O)/C(C)=C1\NC(C)(C)Cc2ccccc21.I,18.7 µg/mL
21,Cc1csc(SCC(=O)NCc2cccc(Cl)c2)n1,> 46.9 µg/mL
22,COc1ccc(S(N)(=O)=O)cc1C(=O)OCC1CCCCC1,48.1 µg/mL
23,COC(=O)c1ccc(N2CCN(C(=O)C3CC3)CC2)c([N+](=O)[O-])c1,> 50 µg/mL

# Now from value to compound:
row,solubility kinetic,Structure (SMILES)
1,< 0.3 µg/mL,CCOc1ccc(Nc2ccnc3cc(Cl)ccc23)cc1
2,61.2 µg/mL,COc1ccc(CCNC(=O)C2CCC(=O)N2S(=O)(=O)c2ccc(C)cc2)cc1 (stereo not drawn)
3,4 µg/mL,O=C(N=C1SC2CS(=O)(=O)CC2N1c1ccccc1)c1ccccc1 (stereo not drawn)
4,23.9 µg/mL,CCN(c1ccccc1)c1cc2ccccc2c(=O)[nH]1
5,> 40.7 µg/mL,CCOc1ccccc1NC(=O)NCc1cccnc1
6,1.1 µg/mL,Cn1c(N)c(-c2ccccc2)c2ccc([N+](=O)[O-])cc2c1=O
7,> 52.7 µg/mL,Cc1ccc2nc(-c3ccccc3NC(=O)CCC(=O)O)c(=O)[nH]c2c1
8,> 48.1 µg/mL,O=C(NC1CC1)c1cccc(NC(=O)c2cn3ccccc3n2)c1
9,5.2 µg/mL,O=C(NCCc1c[nH]c2ccccc12)c1ccc(Cl)cc1
10,11.1 µg/mL,O=C(Nc1cccc(S(=O)(=O)Nc2ccccc2F)c1)c1ccco1
11,12.9 µg/mL,O=Cc1cn(CCOc2ccccc2)c2ccccc12
12,40 µg/mL,CN(C)S(=O)(=O)c1cccc(NC(=O)COC(=O)c2ccc3ccccc3n2)c1
13,42 µg/mL,CCNC(=S)Nc1cccc(NC(=O)c2ccccc2O)c1
14,> 53.3 µg/mL,COc1ccc(C(=O)OCC(=O)N2CCc3ccccc3C2)cc1OC
15,0.3 µg/mL,CCOc1ccc(-n2cc(-c3ccccc3)c3c(=S)nc[nH]c32)cc1
16,2 µg/mL,CNc1nc(Cl)nc(Nc2ccccc2)n1
17,25.7 µg/mL,CC(=O)O/N=C/c1c(NCc2ccccc2)nc2c(C)cccn2c1=O
18,1 µg/mL,O=C1NC(=Nc2ccccc2)S/C1=C\c1cccs1
19,19.5 µg/mL,COc1ccc(CNc2nccs2)cc1
20,7.7 µg/mL,CCOc1ccc(NC(=O)NC2CC(=O)N(c3ccc(OC)cc3)C2)cc1 (stereo not drawn)
21,53.9 µg/mL,Cn1c(=O)c2c(nc(N3CCOCC3)n2CCc2ccccc2)n(C)c1=O
22,> 43.4 µg/mL,O=C(NC(=S)NNC(=O)c1ccco1)c1ccccc1
23,> 34.8 µg/mL,Nc1c(N=O)c(=O)[nH]c(=O)n1-c1ccccc1
24,> 66.7 µg/mL,CC1Cc2ccccc2N1S(=O)(=O)c1cccc(C(=O)OCC(=O)N2CCOCC2)c1 (stereo not drawn)
25,> 47 µg/mL,COc1ccccc1C(=O)NCCC(=O)NCc1ccncc1

row,solubility kinetic,Structure (SMILES)
1,9.4 µg/mL,Oc1ccc2ccccc2c1CNc1ccccn1
2,> 62.2 µg/mL,CCOc1ccc(NC(=O)CN(C)C(=O)C2COc3ccccc3O2)cc1OCC (stereo not drawn)
3,49.4 µg/mL,CC(C)C(=O)Nc1c(-c2ccccc2F)c(=O)c2ccccc2n1C
4,< 0.7 µg/mL,O=C(OCc1cccc([N+](=O)[O-])c1)c1cc2ccccc2oc1=O
5,35.8 µg/mL,COc1ccccc1N=C1SCC(=O)N1Cc1ccco1
6,42.8 µg/mL,CCc1cccc2c(C(=O)C(NC(C)CC)c3ccccc3)c[nH]c12 (stereo not drawn)
7,33.1 µg/mL,O=C(/C=C/c1ccco1)NCCc1ccccc1
8,> 39.6 µg/mL,Cc1cccc(NC(=O)c2ccc3nccnc3c2)n1
9,47.3 µg/mL,CC(=O)N/C(=C\c1ccccc1)C(=O)OC/C=C/c1ccccc1
10,26.8 µg/mL,C=CCn1c(COc2ccc(OC)cc2)nc2ccccc21
11,> 41.9 µg/mL,N#CCCN(Cc1ccccc1)C(=O)Nc1ccccc1
12,50.1 µg/mL,COc1ccc(NC(=O)CSCc2ccc([N+](=O)[O-])cc2)cc1OC
13,> 28.2 µg/mL,c1ccc(CCOn2ccnc2)cc1
14,> 58.7 µg/mL,CC(=O)c1ccc(NC(=O)CN2C(=O)NC3(CCCc4ccccc43)C2=O)cc1 (stereo not drawn)
15,> 63.4 µg/mL,CN(C(=O)c1ccc(F)cc1)c1ccc(OCC(=O)Nc2ccccc2C(=O)O)cc1
16,34.5 µg/mL,O=C1c2cccnc2C(=O)N1CNc1ccc(Cl)cc1
17,3 µg/mL,O=c1c(-c2ccco2)[n+]([O-])c2ccccc2n1OCc1c(F)cccc1F
18,> 42.1 µg/mL,Cc1ccc(C2=CSC3=NS(=O)(=O)CCN23)cc1
19,> 46.2 µg/mL,O=C(COC(=O)Cc1ccc(Cl)cc1)NCc1ccco1
20,1.1 µg/mL,CC(=O)Nc1ccc(NC2=CC(=O)c3ccccc3C2=O)cc1
21,1.2 µg/mL,COc1cccc(/C=C/c2ccc3cccc(O)c3n2)c1OC
22,4.2 µg/mL,O=C(COc1ccc(C(=O)c2ccc(F)cc2)cc1)Nc1cccc(S(=O)(=O)N2CCOCC2)c1
23,37.5 µg/mL,OC(COc1ccc(Cl)cc1)CSc1ccccn1 (stereo not drawn)
24,> 63.1 µg/mL,NS(=O)(=O)c1ccc(CCNC(=O)COC(=O)C2COc3ccccc3O2)cc1 (stereo not drawn)

# Reference: PubChem BioAssay AID1996
